Measurements as given in patent US20210115104A1, “AMYLIN ANALOGUES” (Zealand Pharma A/S, priority 2015, published 2021).
*1 amine or outer side, *2 acyl side, *3 side chain or, on linkers, in order; H or OH if unused. Where a SMILES comes first, the peptide text is derived from it. Bridges are numbered along the chain shown (N, C = ends). [ ]: non-standard residue; d: D form. The star is where a group is joined. C20 diacid = O=C(O)CCCCCCCCCCCCCCCCCCC(=O)*; γGlu = O=C(O)[C@H](CCC(=O)[*:2])N[*:1]; Hyp = O=C(O)[C@@H]1C[C@@H](O)CN1; NMeI = CC[C@H](C)[C@H](NC)C(=O)O; Sar = CNCC(=O)O

What was measured:
[1] = Assessment of physical stability (Thioflavin T fibrillation); assay type: physicochemical; parameters: key: FND = fibrillation not detected; FD = fibrillation detected; details: 1 mg/ml, 40° C., ThT; for Fibrillation pH 4.0 (Ac): 50 mM acetate buffer pH 4.0, 96 hours; for Fibrillation pH 7.0 (His): 50 mM histidine buffer pH 7.0, 96 hours; for Fibrillation pH 7.0 (Phos.): 50 mM phosphate buffer pH 7.0, 96 hours
Summary of the method: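 Fibrillation lag-time, in hours, taken where regressions of the initial stable phase and the growth phase intersect. ThT (40 μM) fluorescence monitored at 40 °C for 96 h, 10-min reads each preceded by 300 s mixing. Peptide at 1 mg/ml in 50 mM buffers: phosphate or histidine pH 7.0, acetate pH 4.0.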

[2] = Pharmacokinetic (PK) profiling in rats; assay type: in vivo, rat; parameters: CI/F (apparent clearance values): unit not given here; details: Sprague Dawley male rats, single sc 30 nmol/kg
Summary of the method: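 Male Sprague Dawley rats received a single sc dose of 30 nmol/kg in mannitol-containing histidine buffer (pH 7.0), with tail-vein sampling before dosing and at 24–168 hours. Plasma was ethanol-precipitated and assayed by LC-MS/MS. Non-compartmental analysis of mean concentrations gave t1/2 as ln(2)/λz and CL/F as dose/AUCinf.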

[3] = target: T1, human amylin receptor 3 (hAMYR3), hCTR2 co-expressed with hRAMP3 (Homo sapiens, UniProt O60896+P30988); test: hAMYR3 cAMP assay (AlphaScreen) in COS7 cells; assay type: cell-based; details: cAMP induction, COS7 cells expressing hAMYR3; Table 1; read-out: hAMYR3 EC50
T1 construct: expressed in transfected cells
T1 sequence (P30988 25-474): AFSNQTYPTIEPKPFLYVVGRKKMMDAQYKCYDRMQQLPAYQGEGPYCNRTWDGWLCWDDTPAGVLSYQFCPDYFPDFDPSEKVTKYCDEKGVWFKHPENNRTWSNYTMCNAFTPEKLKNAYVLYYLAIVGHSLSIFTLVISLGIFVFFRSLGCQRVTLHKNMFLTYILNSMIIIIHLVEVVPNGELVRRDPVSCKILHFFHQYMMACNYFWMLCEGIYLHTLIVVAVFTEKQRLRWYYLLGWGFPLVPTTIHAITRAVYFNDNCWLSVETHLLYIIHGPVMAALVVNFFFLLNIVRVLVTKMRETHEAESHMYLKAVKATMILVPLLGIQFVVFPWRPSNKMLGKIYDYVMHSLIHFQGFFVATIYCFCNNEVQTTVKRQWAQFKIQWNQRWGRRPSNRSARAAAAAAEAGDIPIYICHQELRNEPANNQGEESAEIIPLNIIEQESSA
T1 sequence (O60896 24-148 partner): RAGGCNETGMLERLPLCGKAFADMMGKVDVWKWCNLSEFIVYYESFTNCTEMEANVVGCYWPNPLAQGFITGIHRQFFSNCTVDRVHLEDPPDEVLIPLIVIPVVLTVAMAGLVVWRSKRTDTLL
Summary of the method: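 EC50 values derive from 4PL curve fits of cAMP (AlphaScreen) in lysates of RAMP-naive COS7 cells stably carrying hCTR2 plus hRAMP3. Peptide dilution series were applied for 15 min at 37 °C in pH 7.4 Tyrode buffer containing 100 µM IBMX and 0.1% casein.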

SMILES | Fibrillation pH 4.0 (Ac) [1] | Fibrillation pH 7.0 (His) [1] | Fibrillation pH 7.0 (Phos.) [1] | CI/F (apparent clearance values) [2] | EC50 [3] [nM]
CC[C@H](C)[C@@H](C(=O)N[C@@H](CC(C)C)C(=O)N[C@@H](CO)C(=O)N[C@@H](CO)C(=O)N[C@H](C(=O)N[C@@H](CCC(=O)O)C(=O)N[C@H](C(=O)NCC(=O)N[C@@H](CO)C(=O)N[C@@H](CC(N)=O)C(=O)N[C@H](C(=O)N1C[C@H](O)C[C@H]1C(N)=O)[C@@H](C)O)C(C)C)[C@@H](C)O)N(C)C(=O)[C@H](C)NC(=O)CN(C)C(=O)[C@H](Cc1ccccc1)NC(=O)[C@H](CO)NC(=O)[C@H](CO)NC(=O)[C@H](CCCNC(=N)N)NC(=O)[C@H](CC(N)=O)NC(=O)[C@H](CC(C)C)NC(=O)[C@H](Cc1ccccc1)NC(=O)[C@H](Cc1c[nH]cn1)NC(=O)[C@H](C)NC(=O)[C@H](CC(C)C)NC(=O)[C@H](CCCNC(=N)N)NC(=O)[C@H](CCC(=O)O)NC(=O)[C@@H](NC(=O)[C@H](C)NC(=O)[C@@H]1CSSC[C@H](NC(=O)[C@H](CCCNC(=N)N)NC(=O)CC[C@H](NC(=O)CCCCCCCCCCCCCCCCCCC(=O)O)C(=O)O)C(=O)NCC(=O)N[C@@H]([C@@H](C)O)C(=O)N[C@@H](C)C(=O)N[C@@H]([C@@H](C)O)C(=O)N1)[C@@H](C)O [Compound 6, [19CD]-isoGlu-R-C( )-GTAT-C( )-ATERLAHFLNRSSF-Gly(Me)-A-Ile(Me)-LSSTEVGSNT-Hyp-NH2] ({C20 diacid-γGlu}-RCGTATCATERLAHFLNRSSF[Sar]A[NMeI]LSSTEVGSNT[Hyp]-NH2; disulfide 2-7) | FND | FND | FND | 0.0069 | 0.22
CC[C@H](C)[C@@H](C(=O)N[C@@H](CC(C)C)C(=O)N[C@@H](CO)C(=O)N[C@@H](CO)C(=O)N[C@H](C(=O)N[C@@H](CCC(=O)O)C(=O)N[C@H](C(=O)NCC(=O)N[C@@H](CO)C(=O)N[C@@H](CC(N)=O)C(=O)N[C@H](C(=O)N1CCC[C@H]1C(N)=O)[C@@H](C)O)C(C)C)[C@@H](C)O)N(C)C(=O)[C@H](C)NC(=O)CN(C)C(=O)[C@H](Cc1ccccc1)NC(=O)[C@H](CO)NC(=O)[C@H](CO)NC(=O)[C@H](CCCNC(=N)N)NC(=O)[C@H](Cc1c[nH]cn1)NC(=O)[C@H](CC(C)C)NC(=O)[C@H](Cc1ccccc1)NC(=O)[C@H](Cc1c[nH]cn1)NC(=O)[C@H](C)NC(=O)[C@H](CC(C)C)NC(=O)[C@H](CCCNC(=N)N)NC(=O)[C@H](CCC(=O)O)NC(=O)[C@@H](NC(=O)[C@H](C)NC(=O)[C@@H]1CSSC[C@H](NC(=O)[C@H](CCCNC(=N)N)NC(=O)CC[C@H](NC(=O)CCCCCCCCCCCCCCCCCCC(=O)O)C(=O)O)C(=O)NCC(=O)N[C@@H]([C@@H](C)O)C(=O)N[C@@H](C)C(=O)N[C@@H]([C@@H](C)O)C(=O)N1)[C@@H](C)O [Compound 15, [19CD]-isoGlu-R-C( )-GTAT-C( )-ATERLAHFLHRSSF-Gly(Me)-A-Ile(Me)-LSSTEVGSNTP-NH2] ({C20 diacid-γGlu}-RCGTATCATERLAHFLHRSSF[Sar]A[NMeI]LSSTEVGSNTP-NH2; disulfide 2-7) | FND | FD | FND | 0.0116 | 0.079
